In patent US9636427B2, “Process for preparing a pharmaceutical formulation of contrast agents” (GUERBET, priority 2008, dated 2017):

Experiment: not given
Details: values from table 1 of U.S. Pat. No. 7,385,041; cited from earlier work

Structure (SMILES)	Letal dose (LD 50)
O=C([O-])CN1CCNCCN(CC(=O)[O-])CCN(CC(=O)[O-])CC1.O=C([O-])CN1CCNCCN(CC(=O)[O-])CCN(CC(=O)[O-])CC1.[Ca+2].[Ca+2].[Ca+2] [Ca[Ca-DO3A]2.]	1.6 mmol/kg
CC(O)CN1CCN(CC(=O)[O-])CCN(CC(=O)[O-])CCN(CC(=O)[O-])CC1.CC(O)CN1CCN(CC(=O)[O-])CCN(CC(=O)[O-])CCN(CC(=O)[O-])CC1.[Ca+2].[Ca+2].[Ca+2] (stereo not drawn) [Ca[Ca-HPDO3A]2]	1.3 mmol/kg
O=C(O)CN1CCNCCN(CC(=O)O)CCN(CC(=O)O)CC1 [DO3A]	0.12 mmol/kg
O=C(O)CN1CCN(CC(=O)O)CCN(CC(=O)O)CCN(CC(=O)O)CC1 [DOTA, 1,4,7,10-Tetraazacyclododecane-N,N′,N″,N″′-tetraacetic acid]	0.18 mmol/kg
O=C([O-])CN1CCN(CC(=O)[O-])CCN(CC(=O)O)CCN(CC(=O)[O-])CC1.[Gd+3] [DOTA-Gd]	14 mmol/kg
CC(O)CN1CCN(CC(=O)[O-])CCN(CC(=O)[O-])CCN(CC(=O)[O-])CC1.[Gd+3] (stereo not drawn) [HP-DO3A-Gd]	12 mmol/kg
CC(O)CN1CCN(CC(=O)O)CCN(CC(=O)O)CCN(CC(=O)O)CC1 (stereo not drawn) [HP-DO3A]	0.11 mmol/kg
O=C([O-])CN1CCN(CC(=O)[O-])CCN(CC(=O)[O-])CCN(CC(=O)[O-])CC1.[Ca+2].[Na+].[Na+] [Na2 [Ca-DOTA]]	>7 mmol/kg

Experiment: Lethal dose (LD50) of free macrocyclic chelates, excipients X[X',L] and Gd chelates, table 1 of U.S. Pat. No. 7,385,041
Details: times better LD50 than free DOTA

Structure (SMILES)	LD50 of Na2[Ca-DOTA] relative to free DOTA
O=C([O-])CN1CCN(CC(=O)[O-])CCN(CC(=O)[O-])CCN(CC(=O)[O-])CC1.[Ca+2].[Na+].[Na+] [Na2 [Ca-DOTA]]	at least 40 times
